From paper PMC9370056, “Pyrimidines-Based Heterocyclic Compounds: Synthesis, Cytoxicity Evaluation and Molecular Docking” (Molecules, 2022) come the findings set out here.

Structures can show the parent of a compound that is named as a salt.

One data set deals with PC3 and MRC-5 cell lines. Kind of data set: Selectivity index, CC50 on normal cells / IC50 on cancer cells. In kind it is cell-based, human. To be noted: CC50 on MRC-5 / IC50 on PC3. The text has this:
The selectivity index (SI) is a measure of the drug candidate’s selectivity towards cancer cells rather than normal cells. It can be calculated as the ratio between the tested compound CC50 on normal cells and its IC50 on cancer cells.

Data set [1] concerns human prostate carcinoma cell line PC3. Kind of data set: MTT viability assay, PC3 prostate carcinoma. In kind it is cell-based. Conditions: for IC50: 24 h. As to the method:
(§1) For antitumor assays, the human prostate carcinoma cell line PC3 was suspended in medium at a concentration of 5 × 10^4 cell/well in Corning® 96-well tissue culture plates, then incubated for 24 h. The tested compounds were then added into 96-well plates (three replicates) to achieve eight concentrations for each compound. Six vehicle controls with media or 0.5 % DMSO were run for each 96-well plate as a control. […] Briefly, the media was removed from the 96-well plate and replaced with 100 µL of fresh culture RPMI-1640 medium without phenol red then 10 µL of the 12 mM MTT stock solution (5 mg of MTT in 1 mL of PBS) to each well including the untreated controls. The 96-well plates were then incubated at 37 °C and 5% CO2 for 4 h. An 85 µL aliquot of the media was removed from the wells, and 50 µL of DMSO was added to each well and mixed thoroughly with a pipette and incubated at 37 °C for 10 min. Then, the optical density was measured at 590 nm with the microplate reader (Sunrise, Tecan Inc, Morrisville, NC, USA) to determine the number of viable cells and the percentage of viability was calculated as [(ODt/ODc)] × 100% where ODt is the mean optical density of wells treated with the tested sample and ODc is the mean optical density of untreated cells. The relation between surviving cells and drug concentration was plotted to obtain the survival curve of each tumor cell line after treatment with the specified compound.
On the technique in general: Tetrazolium dyes change colour on reduction, which living cells bring about.

For data set [2], the system named is normal human lung fibroblasts (MRC-5).
For data set [3], the system named is human colon cancer HCT-116. The data set is described as follows: MTT assay, HCT-116. Conditions: Table 1, MTT. The data set is classed as cell-based. As to the method: [The procedure below names another cell line; the source lists this cell line under the same test.] as §1
For the next data set, the system named is liver carcinoma HepG-2. The data set is described as follows: MTT assay, HepG-2. In kind it is cell-based. Conditions: Homo sapiens, HepG2; Table 1, MTT. On the procedure:
[The procedure below names another cell line; the source lists this cell line under the same test.] as §1

For data set [4], the system named is human breast cancer MCF-7. The data set is described as follows: MTT assay, MCF-7. In kind it is cell-based. Conditions: MCF7, Table 1, MTT. On the procedure:
[The procedure below names another cell line; the source lists this cell line under the same test.] as §1

Data set [5] can be described thus: MTT cytotoxicity assay, normal lung fibroblasts MRC-5. Conditions: human, MRC-5 normal lung fibroblast cells.
Experimental: (§3) Preliminary in vitro anticancer activity of two compounds (2, and 3a) against the growth of five human cancer cell lines (prostate carcinoma PC3, liver carcinoma HepG-2, human colon cancer HCT-116, human breast cancer MCF-7, human lung cancer A-549) and normal human lung fibroblasts (MRC-5) were performed using the MTT assay as described in the experimental section. The inhibitory potency of the screened compounds against the tested cell lines was compared to vinblastine sulfate as a reference anticancer drug.
(§4) MRC-5 (normal human Lung fibroblast cells) were obtained from VACSERA Tissue Culture Unit. […] The normal human lung fibroblasts (MRC-5) cells were propagated in Dulbecco’s Modified Eagle’s Medium (DMEM) supplemented with 10% heat-inactivated fetal bovine serum, 1% L-glutamine, HEPES buffer, and 50µg/mL gentamycin. […] All cells were maintained at 37 °C in a humidified atmosphere with 5% CO2 and were subcultured two times a week. Chemicals used: Dimethyl sulfoxide (DMSO), MTT (3-(4,5-dimethylthiazol-2-yl)-2,5-diphenyl tetrazolium bromide), crystal violet, and trypan blue dye were purchased from Sigma (St. Louis, MO, USA). Fetal bovine serum, DMEM, RPMI-1640, HEPES buffer solution, L-glutamine, gentamycin, and 0.25% trypsin-EDTA were purchased from Lonza. Crystal violet stain (1%): composed of 0.5% (w/v) crystal violet and 50% methanol then made up to volume with deionized water and filtered through a Whatman No.1 filter paper.
(§5) For cytotoxicity assay, the normal human lung fibroblasts (MRC-5) cells were seeded in a 96-well plate at a cell concentration of 1 × 10^4 cells per well in 100 µL of growth medium. Fresh medium containing different concentrations of the test sample was added after 24 h of seeding. Serial two-fold dilutions of the tested chemical compound were added to confluent cell monolayers dispensed into 96-well, flat-bottomed microtiter plates (Falcon; Franklin, NJ, USA) using a multichannel pipette. The microtiter plates were incubated at 37 °C in a humidified incubator with 5% CO2 for a period of 24 h. Three wells were used for each concentration of the test sample. Control cells were incubated without the test sample and with or without DMSO. […] After incubation of the cells, viable cell yield was determined by a colorimetric method. After incubating for 24 h, the numbers of viable cells were determined by the MTT test. The cytotoxic concentration (CC50), the concentration required to cause toxic effects in 50% of intact cells, was estimated from graphic plots of the dose–response curve for each conc. using GraphPad Prism software (San Diego, CA. USA).
For data set [6], the system named is normal human lung fibroblasts (MRC-5). Described as above. To be noted: Homo sapiens, MRC5, 24 h, read-out: IC50 Values MRC-5.
Experimental: as §3, §4, §5
In another data set the test system is human lung cancer A-549. The data set is described as follows: MTT assay, A-549. To be noted: A549, Table 1, MTT. The data set is classed as cell-based. As to the method: [The procedure below names another cell line; the source lists this cell line under the same test.] as §1
A further data set deals with PC3 cell line. Kind of data set: Microscopic observation of treated tumor cells (crystal violet). In kind it is cell-based, human. Conditions: 50 µg/mL, 100×, relative to untreated cells. On the procedure: (§2) This experiment was performed as previously described in the procedure for antitumor activity. After the end of the treatment at 50 µg/mL concentration, the plates were inverted to remove the medium, the wells were washed three times with 300 µL of phosphate buffered saline (pH 7.2), and then the cells were fixed to the plate with 10% formalin for 15 min at room temperature. The fixed cells were then stained with 100 µL of 0.25% crystal violet for 20 min. The stain was removed, and the plates were rinsed using deionized water to remove the excess stain and then allowed to dry. The cellular morphology was observed using an inverted microscope (CKX41; Olympus, Tokyo, Japan) equipped with a digital microscopy camera to capture the images representing the morphological changes compared to control cells. The cytopathic effects (morphological alterations) were microscopically detected at 100×.

In another data set the test system is MRC cell line. Kind of data set: Microscopic observation of treated normal cells (crystal violet). To be noted: 50 µg/mL, 100×, relative to untreated cells. The data set is classed as cell-based, human. As to the method:
as §2

[7] abbreviates: Homo sapiens, Table 2, MTT, three replicates.

The term IC50 denotes the concentration that inhibits the measured activity by half. For “3-Hydroxy-6-oxo-8-phenyl-2,6-dihydro-1H-pyrimido[2,1-c]-1,2,4-triazine-7-carbonitrile [Compound 6]”, in the data set on PC3 and MRC-5 cell lines, the “SI (selectivity index)” value stood at 2.17. Further, in data set [1] (Table 2, MTT, three replicates), 208 ± 7 µM corresponded to half-maximal inhibition (IC50). This compound returned a CC50 in data set [2] of 453 ± 13 µM.
Take `N#Cc1c(-c2ccccc2)nc(NN)[nH]c1=O` [Compound 2, 2-Hydrazino-6-oxo-4-phenyl-1,6-dihydropyrimidine-5-carbonitrile]: the “SI (selectivity index)” value in the data set with PC3 and MRC-5 cell lines is given as 2.05. In addition, the IC50 in [3] was 180 µM; in the data set on liver carcinoma HepG-2, 99 µM; in [1] (Homo sapiens, Table 1, MTT), 258 µM; in data set [4], 236 µM; in [6], 532 µM; with human lung cancer A-549, 264 µM. This compound yielded a CC50 at 24 h in data set [5] of 532 ± 14 µM.
In the case of `N#Cc1c(-c2ccccc2)nc(NN=Cc2ccccc2)[nH]c1=O` [Compound 3a, 2-(2-Benzylidenehydrazinyl)-6-oxo-4-phenyl-1,6-dihydropyrimidine-5-carbonitrile], in the data set with PC3 and MRC-5 cell lines, the “SI (selectivity index)” value was 0.99. The IC50 came out at 149 µM in data set [3]; 59 µM in the data set on liver carcinoma HepG-2; 93 µM in [1] (Homo sapiens, Table 1, MTT); 81 µM in data set [4]; 92 µM in data set [6]; 98 µM in the data set on human lung cancer A-549. In data set [5], this compound displayed a CC50 at 24 h of 92 ± 3 µM.
With `N#Cc1c(-c2ccccc2)nc(N/N=C/c2ccc(Br)cc2)[nH]c1=O` [Compound 3b, 2-(2-(4-Bromobenzylidene)hydrazinyl)-6-oxo-4-phenyl-1,6-dihydropyrimidine-5-carbonitri-le], the “Morphological changes of PC3 cells” value in the data set with PC3 cell line is “the cancer cells shrank and lost their normal shape”. In data set [1] (setting [7]), 21 ± 1 µM corresponded to half-maximal inhibition (IC50). In [5], this compound yielded a CC50 at 24 h of 147 ± 4 µM. Besides, the “Morphological changes of MRC cells” value in the data set on MRC cell line was “no significant apoptotic effect”.
With `N#Cc1c(-c2ccccc2)nc(N/N=C/c2ccc(Cl)cc2)[nH]c1=O` [Compound 3c, 2-(2-(4-Chlorobenzylidene)hydrazinyl)-6-oxo-4-phenyl-1,6-dihydropyrimidine-5-carbonitri-le], in the data set on PC3 and MRC-5 cell lines, the “SI (selectivity index)” value is 1.93. In addition, in data set [1] (setting [7]), inhibition was half-maximal at 349 ± 9 µM (IC50). In [5], the CC50 at 24 h amounted to 675 ± 19 µM.
For `N#Cc1c(-c2ccccc2)nc(N/N=C/c2ccccc2Cl)[nH]c1=O` [Compound 3d, 2-(2-(2-Chlorobenzylidene)hydrazinyl)-6-oxo-4-phenyl-1,6-dihydropyrimidine-5-carbonitri-le], the “SI (selectivity index)” value in the data set with PC3 and MRC-5 cell lines came to 2.52. Moreover, half-maximal inhibition in data set [1] (setting [7]) (IC50) was put at 17 ± 1 µM. The “fold more potent than vinblastine sulfate” value in data set [1] (PC3, from IC50 values) lay within 2 to 3 fold. In addition, the CC50 at 24 h in [5] is 44 ± 1 µM.
As to `Cc1ccccc1/C=N/Nc1nc(-c2ccccc2)c(C#N)c(=O)[nH]1` [Compound 3e, 2-(2-(2-Methylbenzylidene)hydrazinyl)-6-oxo-4-phenyl-1,6-dihydropyrimidine-5-carboni-trile], the “SI (selectivity index)” value in the data set on PC3 and MRC-5 cell lines was 2.34. This compound yielded a half-maximal inhibitory concentration (IC50) in [1] (setting [7]) of 182 ± 5 µM. The CC50 at 24 h in data set [5] amounted to 428 ± 16 µM.
As to `COc1cccc(/C=N/Nc2nc(-c3ccccc3)c(C#N)c(=O)[nH]2)c1` [Compound 3f, 2-(2-(3-Methoxybenzylidene)hydrazinyl)-6-oxo-4-phenyl-1,6-dihydropyrimidine-5-carbo-nitrile], the “Morphological changes of PC3 cells” value in the data set with PC3 cell line was “the cancer cells shrank and lost their normal shape”. In data set [1] (setting [7]), this compound displayed an IC50 of 88 ± 2 µM. The compound further registered a CC50 at 24 h in data set [5] of 339 ± 11 µM. Besides, in the data set on MRC cell line, the “Morphological changes of MRC cells” value was “no significant apoptotic effect”.
Regarding `N#Cc1c(-c2ccccc2)nc(N/N=C/c2ccc(O)cc2)[nH]c1=O` [Compound 3g, 2-(2-(4-Hydroxybenzylidene)hydrazinyl)-6-oxo-4-phenyl-1,6-dihydropyrimidine-5-carboni-trile], in the data set on PC3 cell line, the “Morphological changes of PC3 cells” value was “the cancer cells shrank and lost their normal shape”. Besides, 64 ± 3 µM corresponded to half-maximal inhibition in [1] (setting [7]) (IC50). In addition, the CC50 at 24 h in data set [5] stood at 311 ± 14 µM. In the data set with MRC cell line, the “Morphological changes of MRC cells” value is given as “no significant apoptotic effect”.
As for `N#Cc1c(-c2ccccc2)nc(NN=CC=Cc2ccccc2)[nH]c1=O` [Compound 3h, 6-Oxo-4-phenyl-2-(2-(3-phenylallylidene)hydrazinyl)-1,6-dihydropyrimidine-5-carbonitrile], the “Morphological changes of PC3 cells” value in the data set with PC3 cell line was “the cancer cells shrank and lost their normal shape”. This compound returned a 50% inhibitory concentration (IC50) in [1] (setting [7]) of 44 ± 2 µM. This compound registered a CC50 at 24 h in data set [5] of 180 ± 9 µM. For the same compound, the “Morphological changes of MRC cells” value in the data set with MRC cell line is on record as “no significant apoptotic effect”.
For the compound `N#Cc1c(-c2ccccc2)nc(NN=Cc2ccc([N+](=O)[O-])cc2)[nH]c1=O` [Compound 3i, 2-(2-(4-Nitrobenzylidene)hydrazinyl)-6-oxo-4-phenyl-1,6-dihydropyrimidine-5-carbonitrile], the “SI (selectivity index)” value in the data set on PC3 and MRC-5 cell lines is reported as 2.18. The same compound returned an IC50 in data set [1] (setting [7]) of 37 ± 2 µM. The same compound gave a CC50 at 24 h in data set [5] of 82 ± 3 µM.
On the same counts, the results for `N#Cc1c(-c2ccccc2)nc(N/N=C2\C(=O)Nc3ccccc32)[nH]c1=O` [Compound 4, 6-Oxo-2-(2-(isatin-3-ylidene)hydrazinyl)-4-phenyl-1,6-dihydropyrimidine-5-carbonitrile] are 0.57, 603 ± 19 µM and 348 ± 11 µM.
As for `N#Cc1c(-c2ccccc2)nc2n(c1=O)C(c1ccccc1)C(c1ccccc1)=NN2` (stereo not drawn) [Compound 5, 6-Oxo-3,4,8-triphenyl-4,6-dihydro-1H-pyrimido[2,1-c]-1,2,4-triazine-7-carbonitrile], the “Morphological changes of PC3 cells” value in the data set on PC3 cell line was “the cancer cells shrank and lost their normal shape”. The compound also returned a half-inhibitory concentration (IC50) in [1] (setting [7]) of 72 ± 2 µM. The compound further had a CC50 at 24 h in [5] of 263 ± 7 µM. The “Morphological changes of MRC cells” value in the data set with MRC cell line is “no significant apoptotic effect”.
As to `CC[C@]1(O)C[C@@H]2CN(CCc3c([nH]c4ccccc34)[C@@](C(=O)OC)(c3cc4c(cc3OC)N(C)[C@H]3[C@@](O)(C(=O)OC)[C@H](OC(C)=O)[C@]5(CC)C=CCN6CC[C@]43[C@@H]65)C2)C1` [Vinblastine sulfate, reference compound], the “SI (selectivity index)” value with PC3 and MRC-5 cell lines is given as 1.40. Besides, the IC50 in [3] was determined as 4 µM; with liver carcinoma HepG-2, 3 µM; in data set [1] (Homo sapiens, Table 1, MTT) it was 46 µM; in data set [4], 6 µM; in data set [6], 65 µM; in the data set on human lung cancer A-549, 27 µM. In addition, the CC50 at 24 h in [5] worked out at 65 ± 2 µM.
